#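 1) Cells in 96-well plates. 2) Compound, 48 h, 5 concentrations. 3) Linear interpolation between surrounding doses. 4) Unreached endpoint = highest concentration. The concentration for full growth arrest is given as TGI.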
# How the values were obtained:
# Assay in all cases: DTP human tumour cell line panel, 48 h
# [1] = tested on: U251 CNS
# [2] = tested on: PC-3 prostate
# [3] = tested on: NCI-H460 lung
# [4] = tested on: RPMI-8226 leukemia
# [5] = tested on: NCI-H23 lung
# [6] = tested on: UACC-257 melanoma
# [7] = tested on: OVCAR-5 ovarian
# [8] = tested on: CCRF-CEM leukemia
# [9] = tested on: HL-60(TB) leukemia
# [10] = tested on: KM12 colon
# [11] = tested on: SF-295 CNS
# [12] = tested on: T-47D breast
# [13] = tested on: CAKI-1 renal
# [14] = tested on: BT-549 breast
# [15] = tested on: NCI-H226 lung
# [16] = tested on: OVCAR-4 ovarian
# [17] = tested on: K-562 leukemia
# [18] = tested on: MALME-3M melanoma
# [19] = tested on: M14 melanoma
# [20] = tested on: IGROV1 ovarian
# [21] = tested on: HT29 colon
# [22] = tested on: COLO 205 colon
# [23] = tested on: SN12C renal
# [24] = tested on: HOP-92 NSCLC
# [25] = tested on: UO-31 renal
# [26] = tested on: LOX IMVI melanoma
# [27] = tested on: HCT-15 colon
# [28] = tested on: HS 578T breast
# [29] = tested on: A498 renal
# [30] = tested on: MCF7 breast
# [31] = tested on: SK-MEL-5 melanoma
# [32] = tested on: SR leukemia
# [33] = tested on: NCI-H522 lung
# [34] = tested on: OVCAR-3 ovarian
# [35] = tested on: SK-OV-3 ovarian
# [36] = tested on: DU-145 prostate
# [37] = tested on: NCI/ADR-RES ovarian
# [38] = tested on: HCC-2998 colon
# [39] = tested on: SNB-19 CNS
# [40] = tested on: TK-10 renal
# [41] = tested on: SW-620 colon
# [42] = tested on: EKVX NSCLC
# [43] = tested on: UACC-62 melanoma
# [44] = tested on: MDA-MB-435
# [45] = tested on: RXF 393 renal
# [46] = tested on: SK-MEL-2 melanoma
# [47] = tested on: MDA-N
# [48] = tested on: SF-539 CNS
# [49] = tested on: ACHN renal
# [50] = tested on: SNB-75 CNS
# [51] = tested on: HCT-116 colon
# [52] = tested on: HOP-62 NSCLC
# [53] = tested on: 786-0 renal
# [54] = tested on: SK-MEL-28 melanoma
# [55] = tested on: SF-268 CNS
# [56] = tested on: A549 NSCLC
# [57] = tested on: OVCAR-8 ovarian
# [58] = tested on: MOLT-4 leukemia
# [59] = tested on: MDA-MB-231 breast
compound,measurement,setting,value
CCOC(=O)/C(=C\NCc1ccc2c(c1)OCO2)c1nc2ccccc2[nH]1,TGI,[1],> 100 µM
same,TGI,[2],> 100 µM
same,TGI,[3],> 100 µM
same,TGI,[4],> 100 µM
same,TGI,[5],> 100 µM
same,TGI,[6],> 100 µM
same,TGI,[7],> 100 µM
same,TGI,[8],> 100 µM
same,TGI,[9],> 100 µM
same,TGI,[10],> 100 µM
same,TGI,[11],> 100 µM
same,TGI,[12],> 100 µM
same,TGI,[13],> 100 µM
same,TGI,[14],> 100 µM
same,TGI,[15],> 100 µM
same,TGI,[16],> 100 µM
same,TGI,[17],> 100 µM
same,TGI,[18],> 100 µM
same,TGI,[19],> 100 µM
same,TGI,[20],> 100 µM
same,TGI,[21],> 100 µM
same,TGI,[22],> 100 µM
same,TGI,[23],> 100 µM
same,TGI,[24],> 100 µM
same,TGI,[25],> 100 µM
same,TGI,[26],> 100 µM
same,TGI,[27],> 100 µM
same,TGI,[28],> 100 µM
same,TGI,[29],> 100 µM
same,TGI,[30],> 100 µM
same,TGI,[31],> 100 µM
same,TGI,[32],> 100 µM
same,TGI,[33],> 100 µM
same,TGI,[34],> 100 µM
same,TGI,[35],> 100 µM
same,TGI,[36],> 100 µM
same,TGI,[37],> 100 µM
same,TGI,[38],> 100 µM
same,TGI,[39],> 100 µM
same,TGI,[40],60 µM
same,TGI,[41],> 100 µM
same,TGI,[42],> 100 µM
same,TGI,[43],> 100 µM
same,TGI,[44],> 100 µM
same,TGI,[45],> 100 µM
same,TGI,[46],> 100 µM
same,TGI,[47],> 100 µM
same,TGI,[48],> 100 µM
same,TGI,[49],> 100 µM
same,TGI,[50],> 100 µM
same,TGI,[51],> 100 µM
same,TGI,[52],> 100 µM
same,TGI,[53],> 100 µM
same,TGI,[54],> 100 µM
same,TGI,[55],> 100 µM
same,TGI,[56],> 100 µM
same,TGI,[57],> 100 µM
same,TGI,[58],> 100 µM
COc1cccc2c(Nc3ccc(S(=O)(=O)N=C(N)N)cc3)c3ccc([N+](=O)[O-])cc3nc12,TGI,[1],> 100 µM
same,TGI,[2],> 100 µM
same,TGI,[3],> 100 µM
same,TGI,[4],86.5 µM
same,TGI,[5],52.3 µM
same,TGI,[6],56.1 µM
same,TGI,[7],> 100 µM
same,TGI,[8],31.6 µM
same,TGI,[11],> 100 µM
same,TGI,[12],85.9 µM
same,TGI,[13],32.1 µM
same,TGI,[14],46.1 µM
same,TGI,[15],> 100 µM
same,TGI,[16],> 100 µM
same,TGI,[17],> 100 µM
same,TGI,[18],31.4 µM
same,TGI,[19],> 100 µM
same,TGI,[20],31.4 µM
same,TGI,[21],> 100 µM
same,TGI,[22],> 100 µM
same,TGI,[23],> 100 µM
same,TGI,[24],> 100 µM
same,TGI,[25],44.7 µM
same,TGI,[26],57 µM
same,TGI,[27],> 100 µM
same,TGI,[29],44.9 µM
same,TGI,[30],> 100 µM
same,TGI,[31],45.5 µM
same,TGI,[32],70.7 µM
same,TGI,[33],36.5 µM
same,TGI,[34],> 100 µM
same,TGI,[35],> 100 µM
same,TGI,[36],> 100 µM
same,TGI,[37],> 100 µM
same,TGI,[38],87.2 µM
same,TGI,[39],> 100 µM
same,TGI,[59],18 µM
same,TGI,[40],> 100 µM
same,TGI,[41],> 100 µM
same,TGI,[42],> 100 µM
same,TGI,[43],32.8 µM
same,TGI,[44],> 100 µM
same,TGI,[45],> 100 µM
same,TGI,[46],37.6 µM
same,TGI,[47],61.1 µM
same,TGI,[48],> 100 µM
same,TGI,[49],31.9 µM
same,TGI,[51],> 100 µM
same,TGI,[52],64.3 µM
same,TGI,[53],46.7 µM
same,TGI,[54],> 100 µM
same,TGI,[55],> 100 µM
same,TGI,[56],> 100 µM
same,TGI,[57],> 100 µM
same,TGI,[58],> 100 µM
